target: recombinant human NUDT5 (Homo sapiens, UniProt Q9UKK9); test: NUDT5 inhibitor activity by malachite green reporter assay; assay type: biochemical; conditions: Table 3; 6 nM NUDT5, 50 μM ADP-Ribose, 15 minutes at room temperature
Summary of the method: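 Coupled ADP-ribose hydrolysis in 10 mM Tris-acetate pH 8.0, 40 mM NaCl, 10 mM Mg acetate, 0.005% Tween-20, 1 mM DTT: 6 nM NUDT5, 50 μM ADP-Ribose, 10 U/ml alkaline phosphatase, 15 min at room temperature. Pi read by malachite green at 630 nm; compounds 100 μM–1.7 nM, 3-fold; IC50 by curve fit.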

Structure (SMILES) | IC50 [nM]
CCCCN1CCN(c2nc3c(c(=O)n(C)c(=O)n3C)n2Cc2nnc(-c3ccc(Cl)c(Cl)c3)o2)CC1 [Example 16, 8-(4-butylpiperazin-1-yl)-7-{[5-(3,4-dichlorophenyl)-1,3,4-oxadiazol-2-yl]methyl}-1,3-dimethyl-2,3,6,7-tetrahydro-1H-purine-2,6-dione] | 53.8
Cn1c(=O)c2c(nc(N3CCNCC3)n2Cc2nnc(-c3ccc(Cl)c(Cl)c3)o2)n(C)c1=O [Example 19, 7-{[5-(3,4-dichlorophenyl)-1,3,4-oxadiazol-2-yl]methyl}-1,3-dimethyl-8-(piperazin-1-yl)-2,3,6,7-tetrahydro-1H-purine-2,6-dione] | 29.1
Cc1cccc(-c2nnc(Cn3c(N4CCN(C)CC4)nc4c3c(=O)n(C)c(=O)n4C)o2)c1 [Example 51, 1,3-dimethyl-7-{[5-(3-methylphenyl)-1,3,4-oxadiazol-2-yl]methyl}-8-(4-methylpiperazin-1-yl)-2,3,6,7-tetrahydro-1H-purine-2,6-dione] | 31.3
CCN(CC)c1nc2c(c(=O)n(C)c(=O)n2C)n1Cc1nnc(-c2ccc(Cl)c(Cl)c2)o1 [Example 4, 7-{[5-(3,4-dichlorophenyl)-1,3,4-oxadiazol-2-yl]methyl}-8-(diethylamino)-1,3-dimethyl-2,3,6,7-tetrahydro-1H-purine-2,6-dione] | > 1000
CCN1CCN(c2nc3c(c(=O)n(C)c(=O)n3C)n2Cc2nnc(-c3ccc(Cl)c(Cl)c3)o2)CC1 [Example 17, 7-{[5-(3,4-dichlorophenyl)-1,3,4-oxadiazol-2-yl]methyl}-8-(4-ethylpiperazin-1-yl)-1,3-dimethyl-2,3,6,7-tetrahydro-1H-purine-2,6-dione] | 39
Cc1cccc(-c2nnc(Cn3c(N4CCN(CCO)CC4)nc4c3c(=O)n(C)c(=O)n4C)o2)c1 [Example 56, 8-[4-(2-hydroxyethyl)piperazin-1-yl]-1,3-dimethyl-7-{[5-(3-methylphenyl)-1,3,4-oxadiazol-2-yl]methyl}-2,3,6,7-tetrahydro-1H-purine-2,6-dione] | 922
CC1CCN(c2nc3c(c(=O)n(C)c(=O)n3C)n2Cc2nnc(-c3ccc(Cl)c(Cl)c3)o2)CC1 [Example 10, 7-{[5-(3,4-dichlorophenyl)-1,3,4-oxadiazol-2-yl]methyl}-1,3-dimethyl-8-(4-methylpiperidin-1-yl)-2,3,6,7-tetrahydro-1H-purine-2,6-dione] | 22.9
Cc1cccc(-c2nnc(Cn3c(NCc4ccccc4)nc4c3c(=O)n(C)c(=O)n4C)o2)c1 [Example 50, 8-(benzylamino)-1,3-dimethyl-7-{[5-(3-methylphenyl)-1,3,4-oxadiazo-2-yl]methyl}-2,3,6,7-tetrahydro-1H-purine-2,6-dione] | 144
Cc1cccc(-c2nnc(Cn3c(N4CCN(c5ccccc5)CC4)nc4c3c(=O)n(C)c(=O)n4C)o2)c1 [Example 58, 1,3-dimethyl-7-{[5-(3-methylphenyl)-1,3,4-oxadiazol-2-yl]methyl}-8-(4-phenylpiperazin-1-yl)-2,3,6,7-tetrahydro-1H-purine-2,6-dione] | > 1000
Cn1c(=O)c2c(nc(NCCO)n2Cc2nnc(-c3ccc(Cl)c(Cl)c3)o2)n(C)c1=O [Example 2, 7-{[5-(3,4-dichlorophenyl)-1,3,4-oxadiazol-2-yl]methyl}-8-[(2-hydroxyethyl)amino]-1,3-dimethyl-2,3,6,7-tetrahydro-1H-purine-2,6-dione] | 23.7

same assay, conditions: Table 4; 6 nM NUDT5, 50 μM ADP-Ribose, 15 minutes at room temperature

Structure (SMILES) | IC50 [nM]
Cn1c(=O)c2c(nc(Cl)n2Cc2cnc(-c3ccc(Cl)cc3)s2)n(C)c1=O [Example 75, 8-chloro-7-{[2-(4-chlorophenyl)-1,3-thiazol-5-yl]methyl}-1,3-dimethyl-2,3,6,7-tetrahydro-1H-purine-2,6-dione] | 239
Cn1c(=O)c2c(nc(N3CCN(CCNC(=O)OC(C)(C)C)CC3)n2Cc2nnc(-c3ccc(Cl)c(Cl)c3)o2)n(C)c1=O [Example 64, tert-butyl N-{2-[4-(7-{[5-(3,4-dichlorophenyl)-1,3,4-oxadiazol-2-yl]methyl}-1,3-dimethyl-2,6-dioxo-2,3,6,7-tetrahydro-1H-purin-8-yl)piperazin-1-yl]ethyl}carbamate] | 226
Cn1c(=O)c2c(nc(N3CCNCC3)n2Cc2cn(-c3ccc(Cl)c(Cl)c3)nn2)n(C)c1=O [Example 144, 7-{[1-(3,4-dichlorophenyl)-1H-1,2,3-triazol-4-yl]methyl}-1,3-dimethyl-8-(piperazin-1-yl)-2,3,6,7-tetrahydro-1H-purine-2,6-dione] | 155
COc1cc(-c2nnc(Cn3c(SCCNC(C)=O)nc4c3c(=O)n(C)c(=O)n4C)o2)ccc1C [Example 141, N-{2-[(7-{[5-(3-methoxy-4-methylphenyl)-1,3,4-oxadiazol-2-yl]methyl}-1,3-dimethyl-2,6-dioxo-2,3,6,7-tetrahydro-1H-purin-8-yl)sulfanyl]ethyl}acetamide] | 306
Cn1c(=O)c2c(nc(N3CCN(C(=O)OC(C)(C)C)CC3)n2Cc2nnc(-c3ccc(N)cc3)o2)n(C)c1=O [Example 105, tert-butyl 4-(7-{[5-(4-aminophenyl)-1,3,4-oxadiazol-2-yl]methyl}-1,3-dimethyl-2,6-dioxo-2,3,6,7-tetrahydro-1H-purin-8-yl)piperazine-1-carboxylate] | 24500
Cn1c(=O)c2c(nc(Cl)n2Cc2coc(-c3ccc(Cl)c(Cl)c3)n2)n(C)c1=O [Example 71, 8-chloro-7-{[2-(3,4-dichlorophenyl)-1,3-oxazol-4-yl]methyl}-1,3-dimethyl-2,3,6,7-tetrahydro-1H-purine-2,6-dione] | 81.6
Cn1c(=O)c2c(nc(Cl)n2Cc2nnc(-c3ccccc3)o2)n(C)c1=O [Example 88, 8-chloro-1,3-dimethyl-7-[(5-phenyl-1,3,4-oxadiazol-2-yl)methyl]-2,3,6,7-tetrahydro-1H-purine-2,6-dione] | 3590
Cn1c(=O)c2c(nc(N3CCNC(=O)C3)n2Cc2nnc(-c3ccc(Cl)c(Cl)c3)o2)n(C)c1=O [Example 83, 7-{[5-(3,4-dichlorophenyl)-1,3,4-oxadiazol-2-yl]methyl}-1,3-dimethyl-8-(3-oxopiperazin-1-yl)-2,3,6,7-tetrahydro-1H-purine-2,6-dione] | 20.2
COc1ccc(-c2nnc(Cn3c(N4CCNCC4)nc4c3c(=O)n(C)c(=O)n4C)o2)cc1OC [Example 123, 7-{[5-(3,4-dimethoxyphenyl)-1,3,4-oxadiazol-2-yl]methyl}-1,3-dimethyl-8-(piperazin-1-yl)-2,3,6,7-tetrahydro-1H-purine-2,6-dione] | 169
Cn1c(=O)c2c(nc(Cl)n2Cc2nnc(-c3ccc(Cl)cc3)o2)n(C)c1=O [Example 89, 8-chloro-7-{[5-(4-chlorophenyl)-1,3,4-oxadiazol-2-yl]methyl}-1,3-dimethyl-2,3,6,7-tetrahydro-1H-purine-2,6-dione] | 620

system: T47D^WT cells; test: Nuclear-targeted luciferase reporter of nuclear ATP production after R5020 stimulation; assay type: cell-based; conditions: hormone-starved T47D^WT cells, compound for two hours, then R5020; Compound 19 at 1.5 μM, Compounds 16/17 at 15 μM
Description: Top, a representative measurement of bioluminescence intensity over 60 minutes of R5020 treatment; bottom, box-and-whisker plots of bioluminescence quantitations from six independent experiments (center line, median; box limits, upper and lower quartiles; whiskers, minima and maxima; individual data points also shown). ns—not significant, *—p<0.05, **—p<0.01, ***—p<0.001; repeated measures two-way ANOVA analysis.
In HR+ breast cancer cells, NUDT5 activity is required to produce ATP in the nucleus following hormone stimulation (Wright, R. H. G. et al., Science, 352, 1221-1225 (2016)). A nuclear-targeted luciferase reporter system was employed to monitor ATP production after hormone stimulation.
Hormone-starved T47D^WT cells were treated with example compounds as described herein for two hours and then stimulated with the progesterone receptor agonist, R5020, for the time points indicated.

Structure (SMILES) | nuclear luminescence (nuclear ATP production)
CCCCN1CCN(c2nc3c(c(=O)n(C)c(=O)n3C)n2Cc2nnc(-c3ccc(Cl)c(Cl)c3)o2)CC1 [Example 16, 8-(4-butylpiperazin-1-yl)-7-{[5-(3,4-dichlorophenyl)-1,3,4-oxadiazol-2-yl]methyl}-1,3-dimethyl-2,3,6,7-tetrahydro-1H-purine-2,6-dione] | Strong luminescence
Cn1c(=O)c2c(nc(N3CCNCC3)n2Cc2nnc(-c3ccc(Cl)c(Cl)c3)o2)n(C)c1=O [Example 19, 7-{[5-(3,4-dichlorophenyl)-1,3,4-oxadiazol-2-yl]methyl}-1,3-dimethyl-8-(piperazin-1-yl)-2,3,6,7-tetrahydro-1H-purine-2,6-dione] | reduced nuclear luminescence
CCN1CCN(c2nc3c(c(=O)n(C)c(=O)n3C)n2Cc2nnc(-c3ccc(Cl)c(Cl)c3)o2)CC1 [Example 17, 7-{[5-(3,4-dichlorophenyl)-1,3,4-oxadiazol-2-yl]methyl}-8-(4-ethylpiperazin-1-yl)-1,3-dimethyl-2,3,6,7-tetrahydro-1H-purine-2,6-dione] | Strong luminescence

— US20210128566A1, “NOVEL FUNCTIONALIZED PURINE-2,6-DIONES AND THEIR USE IN MEDICINE” (THOMAS HELLEDAYS STIFTELSE FÖR MEDICINSK FORSKNING, priority 2017, published 2021)
